Measurements: patent publication US5821331A, “Anti-picornaviral agents” (Eli Lilly and Company, priority 1996, dated 1998)
Where a SMILES comes first, the peptide text is derived from it. The star is where a group is joined. Boc = CC(C)(C)OC(=O)*

What was measured:
[1] = system: 2C'3ABCD portion of the HRV polyprotein precursor; assay: In Vitro Translation of HRV RNA (rabbit reticulocyte lysate, autoradiography); format: biochemical, human rhinovirus; settings: for Processing of translated viral polyprotein (autoradiography): inhibitor included in cell-free translation assay
Source text: In a cell-free translation system, when no inhibitor was present, RNA corresponding to the 2C'3ABCD portion of the HRV polypeptide precursor was translated into the various individual proteins of the virus. […]
Complementary DNA derived from the HRV genone and representing the 2C'3ABCD portion of the HRV polyprotein precursor (Lee W, Monroe S S, Reuckert R R (1993) J. Virol 67:211-2122) was inserted into the commercially available pCITE vector (Novagen, 565 Science Dr., Madison, Wis.). The vector is supplied with the Novagen Red Nova® Lysate translation assay kit, which provides a lysate of New Zealand White rabbit reticulocytes along with other reagents, that allows for efficient cell-free synthesis of proteins from exogenous RNA templates.
The pCITE 2C'3ABCD-containing plasmid was used to transform the JM101 cell line (Stratagene, La Jolla, Calif.) which was then grown under standardard conditions ([…], 37° C.) in 2× YT broth with ampicillin. The plasmid was then isolated by standard CsCl banding procedures.
The DNA was linearized by treatign the plasmid with 2 unitsMlu 1 restriction enzyme per μg DNA for 3 hours at 37° C., followed by proteinase K (50 μg/mL) treatment for 30 minutes at 37° C. The mixture was extracted twice with phenol/chloroform/isoamyl alcohol (1:1:1) followed by two extractions with chloroform/isoamyl alcohol (1:1). A 0.1 volume 3M sodium acetate (NaOAc), pH 5.2 and two volumes of 100% ethanol were added before placing at -80° C. for 60 minutes. The supernatant was decanted and the pellet was rinsed with 70% ethanol, dried under vacuum, and then resuspended in 25 μL Tris-EDTA buffer (10 mM Tris, 1 mM EDTA; pH 7.6). […]
The compounds of Formula I were assayed according to the Red Nova protocol for their ability to inhibit translation of the rhinoviral RNA by the reticulocyte lysate. ^3 H-Leucine (5 mCi/mL) was included in the assay mixture so that translation products could be identified by autoradiography when the samples were analyzed by SDS polyacrylamide gel electrophoresis. […]

HRV = assay: Whole Cell Culture Assay of Anti-HRV Activity (Hela cells, XTT); format: cell-based, human rhinovirus; settings: concentration not given
Method: A third measure of antiviral activity was performed by determining the effects of selected 3C protease inhibitors of Formula I on HRV infection in cultures of Hela cells.
Commercially available Hela cells are susceptible to HRV infection. The virus enters the cells where it readily replicates and when infection levels become high enough, the Hela cells die. The effect of HRV inhibitors can be measured in Hela cultures by first exposing the cells to HRV and shortly thereafter (before viral infection becomes critical) adding potential inhibitors. Compounds which inhibit 3C protease activity serve to protect the cells from the cytopathic effect of the virus. Comparison of viability in cultures receiving serial dilutions of inhibitor to cultures not receiving any inhibitor allows quantitation of the antiviral effect. Any toxic effect of the inhibitor can also be measured by comparing viability of treated cultures with those cultures which are not infected with the virus.
Viability determinations can be readily made by direct counts of viable cells or by assays representative of viability such as measurement of mitochondrial enzyme activity.
Hela cells were dispersed in a 96-well tissue culture plate at 20,000 cells per well with minimum essential medium containing Earl's balanced salt solution, 1% fetal bovine serum, penicillin (150 units/mL) and streptomycin (150 μg/mL). […]

| Compound | Processing of translated viral polyprotein (autoradiography) [1] | Whole Cell Antiviral Testing (toxic) (HRV) | Translation Assay (toxic) ([1]; at the dose tested (dose not given)) |
| --- | --- | --- | --- |
| CC(C)C[C@H](NC(=O)[C@@H](NC(=O)OC(C)(C)C)C(C)C)C(=O)N[C@@H](Cc1ccccc1)C(=O)N[C@H](C=O)CCC(N)=O [Example 5, N-(t-butoxycarbonyl-L-valinyl-L-leucinyl-L-phenylalanyl)-L-gluatamine aldehyde] (Boc-VLFQ-aldehyde) | single unprocessed band |  |  |
| CC(=O)N[C@@H](CC(C)C)C(=O)N[C@@H](Cc1ccccc1)C(=O)N[C@H](C=O)CCC(N)=O [Example 6, N-(Acetyl-L-leucinyl-L-phenylalanyl)-L-glutamine aldehyde] (Ac-Leu-Phe-Gln-aldehyde) | single unprocessed band |  |  |
| CC(C)C[C@H](N)C(=O)N[C@@H](Cc1ccccc1)C(=O)N[C@H](C=O)CCC(N)=O [Example 7, N-(L-leucinyl-L-phenylalanyl)-L-glutamine aldehyde] (H-Leu-Phe-Gln-aldehyde) |  | toxic | toxic |
